From PubChem BioAssay AID1259408 (Genetic Toxicology Data Bank (GENE-TOX), 2018)
Calls of active or inactive are those of the source. The rule behind the calls is not given here. Bridge positions count the residues as written; N and C are the ends. Square brackets hold non-standard residues; d marks the D form. Peptide text beside a SMILES is read from it. * marks the point of attachment. ξ: configuration not given here. Heptanoyl(5-Me) = CCC(C)CCCC(=O)*; ξThr(3R) = C[C@@H](O)C(N)C(=O)O; dDab = NCC[C@@H](N)C(=O)O; Dab = NCC[C@H](N)C(=O)O

Test system: GENE-TOX genotoxicity assays, various organisms and cells
Experiment: GENE-TOX mutagenicity studies
Details: for call: Assay Type: In vivo carcinogenicity studies
[1] = Species/Cell Type: Salmonella typhimurium (one or more of the five standard strains: TA98, TA100, TA1535, TA1537, and TA1538), Assay Type: Histidine reverse gene mutation, Ames assay, Assay Code: SALT, Evaluation Type: Evaluation A (Pre-1980)
[2] = Species/Cell Type: Salmonella typhimurium (one or more of the five standard strains: TA98, TA100, TA1535, TA1537, and TA1538), Assay Type: Histidine reverse gene mutation, Ames assay, Assay Code: SAL+*, Activation: With metabolic activation, Evaluation Type: Evaluation A (Pre-1980)
[3] = Species/Cell Type: Syrian hamster embryo (SHE) cells, Assay Type: Cell transformation, clonal assay, Assay Code: CTC+, Evaluation Type: Evaluation A (Pre-1980)
[4] = Species/Cell Type: Human lymphocytes, Assay Type: Sister-chromatid exchange (SCE) in vitro, Assay Code: SCL-, Evaluation Type: Evaluation B (Post-1980)
[5] = Species/Cell Type: Salmonella typhimurium (one or more of the five standard strains: TA98, TA100, TA1535, TA1537, and TA1538), Assay Type: Histidine reverse gene mutation, Ames assay, Assay Code: SAL+, Evaluation Type: Evaluation A (Pre-1980)
[6] = Species/Cell Type: Saccharomyces cerevisiae, Assay Type: Mitotic recombination or gene conversion, Assay Code: YEC-, Evaluation Type: Evaluation A (Pre-1980)
[7] = Species/Cell Type: Drosophila melanogaster, Assay Type: Sex-linked recessive lethal gene mutation, Assay Code: SRL+, Evaluation Type: Evaluation A (Pre-1980)
[8] = Species/Cell Type: Nonhuman, Assay Code: CCG+, Evaluation Type: Evaluation A (Pre-1980)
[9] = Species/Cell Type: Salmonella typhimurium, Assay Type: Forward and reverse gene mutation, host-mediated assay, Assay Code: HMA+, Evaluation Type: Evaluation A (Pre-1980)

In the case of `O=NN(CCCO)CCCCO`, the mutagenic call [1] is reported as “no conclusion”.
In the case of `CCCCC/C=C/C=C/C(=O)NCC(C)C`, the mutagenic call (Species/Cell Type: Allium cepa, Assay Type: Chromosome aberrations, Assay Code: ALC+, Evaluation Type: Evaluation A (Pre-1980)) is reported as “active; positive”.
With `CCCCC[C@H](O)/C=C/[C@@H]1[C@@H](C/C=C\CCCC(=O)O)[C@@H](O)C[C@H]1O` the mutagenic call (Species/Cell Type: Rabbit, Sex: Male, Assay Type: Sperm morphology, Assay Code: SPR+, Evaluation Type: Evaluation A (Pre-1980)) was “active; positive”.
In the case of `Cc1ccc2cc3ccc4ccccc4c3cc2c1`, the mutagenic call (Species/Cell Type: Nonhuman, Assay Type: Sister-chromatid exchange (SCE) in vitro, Assay Code: SC2+, Evaluation Type: Evaluation B (Post-1980)) is reported as “active; positive”, the mutagenic call [2] is reported as “active; positive” and the mutagenic call [3] is reported as “active; positive”.
For `CN(N=O)C(=O)Oc1cccc2c1OC(C)(C)C2`, the mutagenic call (Species/Cell Type: Nonhuman, Assay Type: Sister-chromatid exchange (SCE) in vitro, Assay Code: SC2+D, Dose Response: With dose response, Evaluation Type: Evaluation B (Post-1980)) was “active; positive”.
In the case of `CCC(C)CCCC(=O)N[C@@H](CCN)C(=O)N[C@H](C(=O)N[C@@H](CCN)C(=O)N[C@H]1CCNC(=O)C([C@@H](C)O)NC(=O)[C@@H](CCN)NC(=O)[C@H](CCN)NC(=O)[C@@H](CC(C)C)NC(=O)[C@@H](CC(C)C)NC(=O)[C@H](CCN)NC1=O)[C@@H](C)O` (stereo partly drawn) ({Heptanoyl(5-Me)}-[Dab]T[Dab][Dab][Dab][dL][dL][Dab][dDab][ξThr(3R)]; lactam 4-C), the mutagenic call (Species/Cell Type: Escherichia coli polA (W3119 vs P3478), Assay Type: Rec-assay, DNA effects (bacterial DNA repair), Assay Code: RE1-, Evaluation Type: Evaluation A (Pre-1980)) is reported as “inactive; negative”, the mutagenic call [4] is reported as “inactive; negative” and the mutagenic call (Species/Cell Type: Human, Assay Type: Sister-chromatid exchange (SCE) in vitro, Assay Code: SC1-, Evaluation Type: Evaluation B (Post-1980)) is reported as “inactive; negative”.
`CCC(CC)c1cccc(OC(=O)N(C)N=O)c1` was tested, and the mutagenic call [5] was “active; positive”.
In the case of `Cn1c([N+](=O)[O-])cnc1-c1nc2ccccc2n1CCCN1CCOCC1`, the mutagenic call (Species/Cell Type: Drosophila melanogaster, Assay Type: Sex-linked recessive lethal gene mutation, Assay Code: SRLT, Evaluation Type: Evaluation A (Pre-1980)) is reported as “no conclusion” and the mutagenic call [6] is reported as “inactive; negative”.
With `O=NN1CCN(N=O)CC1` the mutagenic call [7] was “active; positive”, the mutagenic call (Species/Cell Type: Drosophila melanogaster, Sex: Male, Assay Type: Heritable translocation test, chromosome aberrations, Assay Code: DHTT, Evaluation Type: Evaluation A (Pre-1980)) was “no conclusion” and the mutagenic call (Species/Cell Type: Glycine max (soybean), Assay Type: Gene mutation, Assay Code: GLM-, Evaluation Type: Evaluation A (Pre-1980)) was “inactive; negative”. The mutagenic call (Species/Cell Type: Mouse embryo (AKR/ME) cells, Assay Type: Cell transformation, Assay Code: CTK+, Evaluation Type: Evaluation A (Pre-1980)) was “active; positive”, the call [8] was “active; positive” and the mutagenic call [2] was “active; positive”. The mutagenic call [9] was “active; positive”.
For `OCNc1nc(NCO)nc(NCO)n1`, the mutagenic call [7] was “active; positive”.
With `O=S1(=O)CCCCO1` the mutagenic call (Species/Cell Type: Escherichia coli polA (W3119 vs P3478), Assay Type: Rec-assay, DNA effects (bacterial DNA repair), Assay Code: RE1+, Evaluation Type: Evaluation A (Pre-1980)) was “active; positive”, the call (Species/Cell Type: Nonhuman, Assay Code: CCGT, Evaluation Type: Evaluation A (Pre-1980)) was “no conclusion” and the mutagenic call (Species/Cell Type: Saccharomyces cerevisiae, Assay Type: Mitotic recombination or gene conversion, Assay Code: YEH+, Evaluation Type: Evaluation A (Pre-1980)) was “active; positive”. For the same compound, the mutagenic call [5] was “active; positive”, the mutagenic call [9] was “active; positive” and the mutagenic call (Species/Cell Type: Schizosaccharomyces pombe, Assay Type: Reverse gene mutation, Assay Code: YEZ+, Evaluation Type: Evaluation A (Pre-1980)) was “active; positive”. For the same compound, the mutagenic call [3] was “active; positive”.
For `CC(=O)Nc1ccc(O)cc1`, the mutagenic call [4] was “inactive; negative” and the mutagenic call [1] was “no conclusion”.
For `CCN(CC)Cc1cc(Br)ccc1OCC(=O)NN`, the mutagenic call (Species/Cell Type: Saccharomyces cerevisiae, Assay Type: Reverse gene mutation, Assay Code: YERT, Evaluation Type: Evaluation A (Pre-1980)) was “no conclusion”.
For `CCNC(=O)Nc1ncc([N+](=O)[O-])s1`, the call [8] was “active; positive”.
`CCCCC[CH2][Hg][Br]` was tested, and the mutagenic call (Species/Cell Type: Allium cepa, Assay Type: Chromosome aberrations, Assay Code: ALC+D, Dose Response: With dose response, Evaluation Type: Evaluation A (Pre-1980)) was “active; positive”.
With `CSc1nnc(C(C)(C)C)c(=O)n1N` the mutagenic call [6] was “inactive; negative”.
For `CC1C=Cc2c1ccc1c2ccc2ccccc21` (stereo not given), the mutagenic call [2] was “active; positive”.
